Series [1] can be described thus: Stability in rat plasma. It counts as in vitro ADME.
In series [2] the target is hCYP P450 3A4 (Homo sapiens, UniProt P08684). As to the kind of experiment: CYP 3A4 inhibition. It counts as in vitro ADME.
The target of series [3] is 2C19 CYP isozyme (Homo sapiens, UniProt P33261). As to the kind of experiment: CYP 2C19 inhibition. Format: in vitro ADME.
Series [4] can be described thus: Stability in human plasma. It counts as in vitro ADME. The settings on record: human (h).
The nature of series [5]: Pharmacokinetics in the male rat. Format: in vivo. The settings on record: 3 mg/kg p.o.
Series [6] is described as follows: Stability in mouse plasma. It counts as in vitro ADME. The conditions noted are these: mouse (m).
The nature of series [7]: Stability in simulated intestinal fluid. Format: in vitro ADME.
Series [8] in a line: Human liver microsomes. It counts as in vitro ADME. A general note: Liver microsomes are vesicles of endoplasmic reticulum, rich in cytochrome P450 enzymes.
Series [9] has as its system mice. Briefly: Hypothermia after intracerebroventricular infusion. Format: in vivo, mouse.
The target of series [10] is T1, hA2BAR (Homo sapiens, UniProt P29275).
T1 sequence (P29275 1-332): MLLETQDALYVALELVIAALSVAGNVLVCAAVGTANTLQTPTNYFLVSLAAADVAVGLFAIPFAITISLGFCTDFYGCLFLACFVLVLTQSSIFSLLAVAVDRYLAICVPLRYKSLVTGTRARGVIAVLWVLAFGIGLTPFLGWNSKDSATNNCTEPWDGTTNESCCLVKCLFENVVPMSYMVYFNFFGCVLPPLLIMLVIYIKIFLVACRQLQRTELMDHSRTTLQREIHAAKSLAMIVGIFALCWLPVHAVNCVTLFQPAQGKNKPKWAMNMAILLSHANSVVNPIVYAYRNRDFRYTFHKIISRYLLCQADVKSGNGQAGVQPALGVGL
As to the kind of experiment: hA2BAR radioligand binding using [3H]54.

In series [11] the test system is HEP-G2 hepatocytes. Briefly: Toxicity in HEP-G2 hepatocytes. Format: cell-based.
The test system of series [12] is A1AR, A3AR. Briefly: Hypothermia in A1AR, A3AR and A1AR/A3AR deficient mice. Format: in vivo, mouse. The settings on record: 3 mg/kg ip.
Series [13] in a line: Stability in simulated gastric fluid. Format: in vitro ADME.
The nature of series [14]: Mouse liver microsomes. Format: in vitro ADME.
Series [15] relates to wild-type C57BL/6J mice. Briefly: Body temperature and locomotor activity by telemetry after ip. dosing. It counts as in vivo, mouse.
Series [16] has as its target 1A2 CYP isozyme (Homo sapiens, UniProt P05177). As to the kind of experiment: CYP 1A2 inhibition. Format: in vitro ADME.
A short description of series [17]: Rat liver microsomes. Format: in vitro ADME.
In series [18] the test system is CACO-2 cells. Briefly: CACO-2 permeability and efflux. It counts as in vitro ADME. For orientation: Passage across Caco-2 layers is used to estimate intestinal permeability.
Series [19] has as its target hCYP P450 2C9 (Homo sapiens, UniProt P11712). Briefly: CYP 2C9 inhibition. It counts as in vitro ADME.
The target in series [20] is hCYP P450 2D6 (Homo sapiens, UniProt P10635). Briefly: CYP 2D6 inhibition. It counts as in vitro ADME.
hCYP P450 2D6, sequence (P10635 whole entry): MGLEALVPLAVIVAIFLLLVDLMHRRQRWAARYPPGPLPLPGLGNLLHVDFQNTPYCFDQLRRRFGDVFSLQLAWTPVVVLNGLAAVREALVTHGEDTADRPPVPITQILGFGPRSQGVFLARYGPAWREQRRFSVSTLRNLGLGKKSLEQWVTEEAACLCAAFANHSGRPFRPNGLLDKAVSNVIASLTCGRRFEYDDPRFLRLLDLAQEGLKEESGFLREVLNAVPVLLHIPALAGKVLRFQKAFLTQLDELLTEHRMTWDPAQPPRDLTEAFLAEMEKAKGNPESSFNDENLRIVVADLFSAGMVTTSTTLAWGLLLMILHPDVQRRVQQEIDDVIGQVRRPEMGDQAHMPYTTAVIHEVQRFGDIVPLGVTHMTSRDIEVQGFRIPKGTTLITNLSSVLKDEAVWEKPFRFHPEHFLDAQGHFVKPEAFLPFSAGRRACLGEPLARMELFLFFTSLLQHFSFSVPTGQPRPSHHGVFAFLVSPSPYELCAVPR
Series [21] concerns the target σ1 (Homo sapiens, UniProt Q99720). As to the kind of experiment: PDSP off-target binding, σ1.
Series [22] relates to female rhesus monkeys. Briefly: Tolerability in female rhesus monkeys. It counts as in vivo, rhesus monkey. The conditions noted are these: 1 or 3 mg/kg in a food treat; up to 4 h post-dosing.
Series [23] is described as follows: Pharmacokinetics in male cynomolgus monkeys. Format: in vivo, cynomolgus monkey. The settings on record: one-day observation period.
The test system of series [24] is 403 kinases. Briefly: Kinase screen. Format: binding. The conditions noted are these: at 10 μM; among 403 kinases.
The test system of series [25] is anesthetized rat. Briefly: Cardiovascular effects in the anesthetized rat. The conditions noted are these: 3 mg/kg, ip., preliminary. Format: in vivo.
In series [26] the test system is mouse. The conditions noted are these: 60 mg/kg.
The test system of series [27] is GPCR assays. Briefly: Broad GPCR screening. It counts as cell-based. The conditions noted are these: at 10 μM; DiscoverX.
For series [28], the system named is wild-type C57BL/6J mice. The settings on record: 3 mg/kg ip.; average from dosing to 60 min; ref [30]; cited from earlier work.
In series [29] the test system is A1AR, A3AR. The settings on record: ref [30]; cited from earlier work.
In series [30] the target is hA2AAR (Homo sapiens, UniProt P29274). The settings on record: read-out: A2AAR Ki; human (h); ref [1],[17],[23],[30],[32]-[35],[43],[45]; cited from earlier work.
hA2AAR, sequence (P29274 whole entry): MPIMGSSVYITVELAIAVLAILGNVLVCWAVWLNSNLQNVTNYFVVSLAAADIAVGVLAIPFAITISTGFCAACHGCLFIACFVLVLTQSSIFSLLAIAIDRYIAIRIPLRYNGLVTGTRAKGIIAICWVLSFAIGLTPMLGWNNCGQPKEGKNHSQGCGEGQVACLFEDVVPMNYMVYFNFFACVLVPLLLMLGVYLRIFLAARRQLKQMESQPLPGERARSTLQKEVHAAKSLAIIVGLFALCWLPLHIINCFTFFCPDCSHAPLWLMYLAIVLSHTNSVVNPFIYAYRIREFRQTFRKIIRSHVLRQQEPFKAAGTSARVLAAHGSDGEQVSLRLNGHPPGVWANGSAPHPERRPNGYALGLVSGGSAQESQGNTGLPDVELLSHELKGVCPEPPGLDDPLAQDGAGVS
The target of series [31] is rA2AAR. The settings on record: read-out: A2AAR Ki; rat (r); ref [17],[23],[30],[33],[34],[43],[45]; cited from earlier work.
Series [32] has as its system off-target receptors and transporters. Briefly: PDSP off-target screen. It counts as binding, human.
Series [33] deals with hA3AR (Homo sapiens, UniProt P0DMS8). The conditions noted are these: read-out: A3AR Ki; human (h); ref [1],[17],[23],[30],[32]-[35],[43],[45]; cited from earlier work.
hA3AR, sequence (P0DMS8 whole entry): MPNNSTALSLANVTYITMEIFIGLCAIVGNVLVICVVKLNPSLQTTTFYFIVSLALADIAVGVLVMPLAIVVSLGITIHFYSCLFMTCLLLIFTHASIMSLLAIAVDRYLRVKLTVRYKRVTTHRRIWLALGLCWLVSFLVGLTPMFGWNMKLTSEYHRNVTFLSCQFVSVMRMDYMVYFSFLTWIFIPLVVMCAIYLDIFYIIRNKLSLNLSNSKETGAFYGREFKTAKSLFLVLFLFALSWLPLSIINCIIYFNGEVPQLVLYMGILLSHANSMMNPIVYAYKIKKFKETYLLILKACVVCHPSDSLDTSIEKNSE
For series [34], the target named is T2, hA1AR (Homo sapiens, UniProt P30542).
T2 sequence (P30542 1-326): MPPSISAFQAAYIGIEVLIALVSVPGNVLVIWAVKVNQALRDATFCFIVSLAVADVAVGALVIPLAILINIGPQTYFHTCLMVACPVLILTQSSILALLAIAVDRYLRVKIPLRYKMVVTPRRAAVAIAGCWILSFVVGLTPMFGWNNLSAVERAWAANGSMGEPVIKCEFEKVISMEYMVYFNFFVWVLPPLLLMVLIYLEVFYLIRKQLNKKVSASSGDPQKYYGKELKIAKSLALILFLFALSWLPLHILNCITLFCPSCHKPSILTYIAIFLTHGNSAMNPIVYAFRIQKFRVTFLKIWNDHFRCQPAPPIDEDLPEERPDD
The settings on record: read-out: A1AR Ki; human (h); ref [1],[17],[23],[30],[32]-[36],[43]-[45]; cited from earlier work.

Series [35] addresses rA1AR (Rattus norvegicus, UniProt P25099). The conditions noted are these: read-out: A1AR Ki; rat (r); ref [17],[23],[30],[33],[34],[43],[45]; cited from earlier work.
Series [36] concerns the target T3, mA1AR (Mus musculus, UniProt Q60612).
T3 sequence (Q60612 1-326): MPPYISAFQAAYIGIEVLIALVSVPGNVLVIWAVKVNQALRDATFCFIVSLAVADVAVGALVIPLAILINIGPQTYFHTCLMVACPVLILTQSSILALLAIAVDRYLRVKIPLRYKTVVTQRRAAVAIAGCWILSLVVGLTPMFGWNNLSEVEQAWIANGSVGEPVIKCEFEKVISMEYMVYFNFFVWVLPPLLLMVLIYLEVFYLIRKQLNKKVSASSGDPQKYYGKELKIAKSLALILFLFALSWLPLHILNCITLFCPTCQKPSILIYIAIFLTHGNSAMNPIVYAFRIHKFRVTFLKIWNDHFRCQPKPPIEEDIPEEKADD
The conditions noted are these: read-out: A1AR Ki; mouse (m); ref [17],[23],[30],[32]-[34],[36],[43]-[45]; cited from earlier work.

For series [37], the target named is mA3AR (Mus musculus, UniProt Q61618). The conditions noted are these: read-out: A3AR Ki; mouse (m); ref [17],[23],[30],[32]-[34],[43],[45]; cited from earlier work.
mA3AR, sequence (Q61618 whole entry): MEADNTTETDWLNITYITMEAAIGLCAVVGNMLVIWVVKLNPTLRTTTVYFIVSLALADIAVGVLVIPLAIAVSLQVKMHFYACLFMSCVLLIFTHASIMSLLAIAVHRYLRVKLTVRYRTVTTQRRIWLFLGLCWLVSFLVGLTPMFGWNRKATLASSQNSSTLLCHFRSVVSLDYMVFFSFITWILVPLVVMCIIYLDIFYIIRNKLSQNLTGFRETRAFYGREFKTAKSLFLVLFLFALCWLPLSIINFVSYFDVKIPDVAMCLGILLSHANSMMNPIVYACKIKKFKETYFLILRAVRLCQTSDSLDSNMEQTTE
For series [38], the target named is 5HT2C (Homo sapiens, UniProt P28335). Briefly: PDSP off-target binding, 5HT2C. The conditions noted are these: read-out: Off-target Ki, 5HT2C.
5HT2C, sequence (P28335 33-458): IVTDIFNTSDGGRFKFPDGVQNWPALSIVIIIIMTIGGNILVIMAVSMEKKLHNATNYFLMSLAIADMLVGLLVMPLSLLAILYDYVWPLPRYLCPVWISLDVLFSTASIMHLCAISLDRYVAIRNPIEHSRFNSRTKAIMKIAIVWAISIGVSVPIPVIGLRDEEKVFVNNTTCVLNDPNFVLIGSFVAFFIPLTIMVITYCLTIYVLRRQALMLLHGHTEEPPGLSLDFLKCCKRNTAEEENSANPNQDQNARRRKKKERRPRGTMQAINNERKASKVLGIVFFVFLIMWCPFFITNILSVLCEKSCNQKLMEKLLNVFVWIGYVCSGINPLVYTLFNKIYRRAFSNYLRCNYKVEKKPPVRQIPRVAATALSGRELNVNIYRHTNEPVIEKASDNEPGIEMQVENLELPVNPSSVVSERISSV
Series [39] addresses mA2AAR (Mus musculus, UniProt Q60613). The conditions noted are these: mouse (m); at 10 μM; ref [30],[33],[34],[43]; cited from earlier work.
The target of series [40] is DAT (Homo sapiens, UniProt Q01959). Briefly: PDSP off-target binding, DAT. The conditions noted are these: read-out: Off-target Ki, DAT.

Read-outs that look alike come from different tables or passages of the source.

mA2AAR, sequence (Q60613 whole entry): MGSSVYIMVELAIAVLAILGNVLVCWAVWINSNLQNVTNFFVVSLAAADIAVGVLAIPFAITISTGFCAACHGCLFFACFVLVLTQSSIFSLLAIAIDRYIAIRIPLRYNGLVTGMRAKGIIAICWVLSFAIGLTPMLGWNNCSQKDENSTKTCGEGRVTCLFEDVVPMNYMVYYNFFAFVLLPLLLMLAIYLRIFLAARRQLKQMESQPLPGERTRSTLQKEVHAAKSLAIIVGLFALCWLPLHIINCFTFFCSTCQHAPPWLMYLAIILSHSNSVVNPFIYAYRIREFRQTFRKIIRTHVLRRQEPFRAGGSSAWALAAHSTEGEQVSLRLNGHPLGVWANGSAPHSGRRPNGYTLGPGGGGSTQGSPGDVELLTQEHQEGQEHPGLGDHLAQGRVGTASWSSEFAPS
1A2 CYP isozyme, sequence (P05177 whole entry): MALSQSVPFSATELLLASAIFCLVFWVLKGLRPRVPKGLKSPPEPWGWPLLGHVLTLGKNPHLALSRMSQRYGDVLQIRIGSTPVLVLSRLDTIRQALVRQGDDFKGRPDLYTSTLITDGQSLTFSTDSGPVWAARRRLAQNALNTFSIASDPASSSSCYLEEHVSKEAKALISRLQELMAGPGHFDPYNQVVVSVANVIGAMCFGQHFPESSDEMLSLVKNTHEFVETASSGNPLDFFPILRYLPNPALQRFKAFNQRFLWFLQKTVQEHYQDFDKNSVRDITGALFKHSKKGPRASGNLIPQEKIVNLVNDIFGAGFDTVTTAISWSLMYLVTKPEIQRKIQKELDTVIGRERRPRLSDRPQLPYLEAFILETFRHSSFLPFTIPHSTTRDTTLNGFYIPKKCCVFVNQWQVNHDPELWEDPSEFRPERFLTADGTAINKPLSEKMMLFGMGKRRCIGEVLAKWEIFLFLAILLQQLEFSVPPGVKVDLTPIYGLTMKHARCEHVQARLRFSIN
rA1AR, sequence (P25099 whole entry): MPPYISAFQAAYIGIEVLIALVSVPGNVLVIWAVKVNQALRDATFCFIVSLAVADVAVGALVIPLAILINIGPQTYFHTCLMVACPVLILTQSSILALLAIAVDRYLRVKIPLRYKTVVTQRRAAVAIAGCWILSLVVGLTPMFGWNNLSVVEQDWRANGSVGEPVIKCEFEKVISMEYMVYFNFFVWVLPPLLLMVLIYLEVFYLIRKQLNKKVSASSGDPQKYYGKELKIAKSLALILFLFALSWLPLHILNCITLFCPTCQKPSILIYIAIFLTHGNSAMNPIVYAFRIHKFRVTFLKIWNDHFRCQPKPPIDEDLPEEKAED
hCYP P450 2C9, sequence (P11712 whole entry): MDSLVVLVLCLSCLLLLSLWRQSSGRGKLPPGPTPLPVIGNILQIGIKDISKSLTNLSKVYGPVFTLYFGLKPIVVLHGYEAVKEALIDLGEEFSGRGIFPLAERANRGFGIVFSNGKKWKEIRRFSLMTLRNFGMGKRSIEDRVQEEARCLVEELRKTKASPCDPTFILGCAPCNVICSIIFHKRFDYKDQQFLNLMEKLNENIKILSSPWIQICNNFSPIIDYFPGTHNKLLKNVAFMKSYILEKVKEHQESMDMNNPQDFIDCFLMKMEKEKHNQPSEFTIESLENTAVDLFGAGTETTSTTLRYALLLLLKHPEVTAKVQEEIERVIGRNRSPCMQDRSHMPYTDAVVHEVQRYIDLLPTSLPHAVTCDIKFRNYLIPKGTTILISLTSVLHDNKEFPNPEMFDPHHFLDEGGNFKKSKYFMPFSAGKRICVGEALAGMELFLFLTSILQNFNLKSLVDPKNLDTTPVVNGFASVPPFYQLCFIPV
σ1, sequence (Q99720 whole entry): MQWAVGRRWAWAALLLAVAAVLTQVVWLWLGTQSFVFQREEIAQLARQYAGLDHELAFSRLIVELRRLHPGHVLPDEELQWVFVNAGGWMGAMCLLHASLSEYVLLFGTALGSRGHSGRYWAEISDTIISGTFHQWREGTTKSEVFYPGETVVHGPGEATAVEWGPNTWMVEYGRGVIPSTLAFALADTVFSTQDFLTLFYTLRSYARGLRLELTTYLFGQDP
2C19 CYP isozyme, sequence (P33261 whole entry): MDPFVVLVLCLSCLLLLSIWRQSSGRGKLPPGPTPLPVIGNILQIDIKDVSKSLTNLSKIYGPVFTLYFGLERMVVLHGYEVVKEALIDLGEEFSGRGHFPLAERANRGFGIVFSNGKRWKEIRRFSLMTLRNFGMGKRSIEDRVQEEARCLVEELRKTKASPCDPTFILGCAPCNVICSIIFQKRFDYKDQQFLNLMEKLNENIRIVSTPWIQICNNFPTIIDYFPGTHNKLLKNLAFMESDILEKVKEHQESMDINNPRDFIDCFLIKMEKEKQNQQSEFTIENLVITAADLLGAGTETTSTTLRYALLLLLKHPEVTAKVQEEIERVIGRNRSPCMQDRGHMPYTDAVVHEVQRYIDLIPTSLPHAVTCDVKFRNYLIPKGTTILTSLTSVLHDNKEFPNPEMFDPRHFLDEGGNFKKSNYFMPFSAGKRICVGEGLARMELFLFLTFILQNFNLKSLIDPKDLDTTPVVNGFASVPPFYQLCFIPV
hCYP P450 3A4, sequence (P08684 whole entry): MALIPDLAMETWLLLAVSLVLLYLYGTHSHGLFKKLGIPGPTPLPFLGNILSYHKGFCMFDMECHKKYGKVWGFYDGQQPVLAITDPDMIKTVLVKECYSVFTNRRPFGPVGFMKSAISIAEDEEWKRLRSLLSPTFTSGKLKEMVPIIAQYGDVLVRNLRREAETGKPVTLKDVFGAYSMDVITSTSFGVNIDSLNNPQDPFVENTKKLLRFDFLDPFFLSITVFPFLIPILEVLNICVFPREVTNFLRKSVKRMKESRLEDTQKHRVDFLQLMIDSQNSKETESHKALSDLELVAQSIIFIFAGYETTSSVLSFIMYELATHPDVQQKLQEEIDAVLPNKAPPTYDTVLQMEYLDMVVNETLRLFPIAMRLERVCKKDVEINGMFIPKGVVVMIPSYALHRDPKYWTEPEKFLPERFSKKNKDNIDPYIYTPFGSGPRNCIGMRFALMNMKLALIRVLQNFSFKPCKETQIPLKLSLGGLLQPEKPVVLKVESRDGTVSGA

The term Ki denotes the dissociation constant of the complex between target and ligand, obtained from inhibition or displacement. Consider `OC[C@H]1O[C@@H](n2cnc3c(NC(C4CCC4)C4CCC4)ncnc32)[C@H](O)C1O` (stereo in doubt) [Compound 9, (2R,3R,4R,5R)-2-(6-((Dicyclobutylmethyl)amino)-9H-purin-9-yl)-5-(hydroxymethyl)tetrahydrofuran-3,4-diol], for which the Stability in plasma entry in series [1], in [4] and in series [6] was “completely stable” throughout. Moreover, the “Inhibition of 3A4 CYP isozyme” value in series [2] was “no inhibition”. Moreover, in series [3], the “Inhibition of 2C19 CYP isozyme” value is “no inhibition”. In addition, the “maximal concentration, molar” value in [5] is on record as 310 nM. In addition, the “Stability in simulated intestinal fluid” value in series [7] is given as “completely stable”. The “Clearance in liver microsomes” value in series [8] (human), in [14] and in [17] was “medium clearance” each time. Further, the “Duration of hypothermia after icv. administration” value in series [9] (1.67 μg/mouse icv. (= […])) is recorded as ~ 10 h. The “Effect on Tb after icv. administration” value in series [9] (1.67 μg/mouse icv. (= […])) was “deep hypothermia”. Also, the “Tb reached after icv. administration” value in series [9] (5 μg injected icv. (equivalent to […])) is ~ 24 °C. In addition, the affinity in series [10] corresponds to a Ki of 8.62 µM. Moreover, the “Toxicity in HEP-G2 hepatocytes” value in series [11] is listed as “nontoxic”. Further, the “Receptor dependence of hypothermia” value in series [12] (A1AR KO, A3AR KO, double KO mice) was “dependent on A1AR, without a contribution from A3AR”. Further, the ARs causing hypothermia entry in [12] (WT vs AR-KO mice (Figure 2)) is reported as “A1AR selective (Figure 2)”. Also, in series [13], the “Stability in simulated gastric fluid” value was “completely stable”. Moreover, the Tb in [15] (3 mg/kg ip., average from dosing to 60 min, mean ±SD) came out at 33.0±0.7 °C. Besides, the “Effect on Tb in WT mice” value in [15] (ip., up to 3 or 10 mg/kg) was “produced hypothermia and hypoactivity”. In [16], the “Inhibition of 1A2 CYP isozyme” value is given as “no inhibition”. The “Permeability in CACO-2 cells” value in [18] is “high permeability”. Further, in [19], the “Inhibition of 2C9 CYP isozyme” value is “weak inhibition”. The “Inhibition of 2D6 CYP isozyme” value in series [20] is on record as “no inhibition”.

Turning to `CNC(=O)[C@]12C[C@@H]1[C@@H](n1cnc3c(NC4CCCC4)nc(Cl)nc31)[C@H](O)[C@@H]2O` [Compound 6], in series [21], the Ki turned out to be 1.55 µM.

In the case of `O[C@@H]1[C@H](O)[C@@H]2C[C@@H]2[C@H]1n1cnc2c(NC(C3CC3)C3CC3)nc(Cl)nc21` [Compound 7], the “Adverse reaction after oral dosing” value in series [22] is “no adverse reaction”. Moreover, in [23], the Clinical observations result was “no clinical observations”. Further, the “Hits in kinase screen” value in series [24] is given as “only two weak hits”. For the same molecule, in series [7], the “Stability in simulated intestinal fluid” value was “stable”. In [25], the “Effects on heart rate and blood pressure” value is “modest effects on heart rate (slow onset of reduction) and blood pressure (a modest, transient rise)”. For the same molecule, the “Lethality in the mouse” value in series [26] is “non-lethal”. The “Broad GPCR screening result” value in [27] is “not promiscuous”. Also, the “Stability in human liver microsomes” value in series [8] is listed as “stable”. Moreover, the Tb in series [28] is 33.4±1.7 °C. Also, the ARs causing hypothermia entry in series [29] is “A3AR >> A1AR[30]”.

In the case of `OC[C@H]1O[C@@H](n2cnc3c(NC(C4CC4)C4CC4)ncnc32)[C@H](O)[C@@H]1O` [Compound 8], the inhibitory constant (Ki) was 1.47 ± 0.38 µM in series [30], 1.37 µM in series [31], 0.0413 ± 0.0053 µM in [33] and 0.00085 ± 0.00027 µM in [34]. Further, the “Off-target, receptor: interactions found” value in series [32] is listed as “none”.

Regarding `Nc1nc(Cl)nc2c1ncn2[C@H]1[C@H](O)[C@H](O)[C@]2(CO)C[C@H]12` [Compound 21], the “Off-target, receptor: interactions found” value in [32] is reported as “none”. Moreover, the Ki in [35] was 0.273 µM.

In the case of `OCC12CC1C(n1cnc3c(NC(C4CC4)C4CC4)nc(Cl)nc31)C(O)C2O` (centres unmarked) [Compound 23], the inhibition constant (Ki) was 0.00071 µM in series [36]; 2.2 µM in series [30]; 1.03 µM in series [37]; 1.85 µM in series [38]; 1.6 ± 0.21 µM in [33]; 0.039 ± 0.017 µM in series [34]. Also, the inhibition constant Ki in series [40] amounted to 4.75 µM. Besides, the A2AAR % inhibition in series [39] is given as 41±9%.
